From patent US9249132B2, “Substituted bicyclic aromatic compounds as S-nitrosoglutathione reductase inhibitors” (Nivalis Therapeutics, Inc., priority 2010, dated 2016)
pIC50: −log10 of the molar value.

test system: not listed separately; experiment: Mouse pharmacokinetic (PK) study; type: in vivo; conditions: plasma, male BALB/c mice, PO 10 mg/kg, IV 2 mg/kg
Description: The mouse was used to determine the pharmacokinetics of compounds of the invention. This species is widely used to assess the bioavailability of compounds by administering both oral (PO) and intravenous (IV) test articles. Efficacy of the compounds of the invention was compared by assessing plasma exposure in male BALB/c mice either via IV or PO administration at the times of peak activity.
Compounds of the invention were reconstituted in a phosphate buffered saline (PBS)/10% Solutol (HS 15) clear solution resulting in a concentration of 0.2 mg/mL and administered to mice (2 mg/kg) as a single IV dose. Animals were dosed via the lateral tail vein. […] The plasma was transferred into labeled polypropylene tubes and frozen at −70° C. until analyzed by LC/MS/MS.
The compounds of the invention were reconstituted in 40% Propylene Glycol/40% Propylene Carbonate/20% of a 5% Sucrose clear solution resulting in a concentration of 2 mg/mL and administered to mice (10 mg/kg) as a single oral dose via gavage. […] The plasma was transferred into labeled polypropylene tubes and frozen at −70° C. until analyzed by LC/MS/MS.
Plasma samples at each timepoint were analyzed using a LC-MS/MS with a lower limit of quantification (LLOQ) of 1 ng/mL. […]
In addition to the above PK parameters, bioavailability (% F) was calculated.

Compound	bioavailability [%]
O=C(O)c1ccc(-c2ccc3cc(O)ccc3c2)c(F)c1 [Example 2, 3-fluoro-4-(6-hydroxynaphthalen-2-yl)benzoic acid]	> 40

test system: dextran sodium sulfate (DSS)-induced IBD; experiment: Acute prophylactic model of DSS-induced IBD; type: in vivo, mouse; conditions: acute DSS-induced IBD
Description: Acute and chronic models of dextran sodium sulfate (DSS)-induced IBD in mice were used to explore efficacy of GSNORi against this disease. Acute and chronic DSS-induced IBD are widely used and well characterized models that induce pathological changes in the colon similar to those observed in the human disease. In these models and in human disease, epithelial cells within the crypts of the colon are disrupted, leading to dysfunction of the epithelial barrier and the ensuing tissue inflammation, edema, and ulceration. GSNORi therapy may benefit IBD by restoring s-nitrosoglutathione (GSNO) levels, and thus prevent or reverse the epithelial barrier dysfunction. Experimental IBD was induced by administration of DSS in the drinking water of male C57B1/6 mice (N=8 to 10 mice per group) for 6 consecutive days. GSNORi was dosed orally at doses of 0.1 to 10 mg/kg/day for 10 days starting two days prior to and continuing two days post DSS exposure. Two days post DSS exposure, the effect of GSNORi was assessed in a blinded fashion via endoscopy and histopathology using a five point scale ranging from a score=0 (normal tissue) through a score=4 (ulcerative tissue damage and marked pathological changes). Levels of circulating cytokines involved in inflammatory pathways were also assessed. The effect of GSNORi was compared to vehicle treated controls. The corticosteroid, prednisolone, was used as the positive control in this study and was administered daily at 3 mg/kg/day via oral dosing. Naïve mice (N=5) were also assessed as a normal tissue control.

Compound	colon injury (in words)
O=C(O)c1ccc(-c2ccc3cc(O)ccc3c2)c(F)c1 [Example 2, 3-fluoro-4-(6-hydroxynaphthalen-2-yl)benzoic acid]	attenuated colon injury

same assay, conditions: acute model; oral 10 mg/kg/day for 10 consecutive days, prophylactic dosing regimen

Compound	decrease of percent of mice presenting with severe colon injury scores via histopathology, of vehicle control [%]
O=C(O)c1ccc(-c2ccc3cc(O)ccc3c2)c(F)c1 [Example 2, 3-fluoro-4-(6-hydroxynaphthalen-2-yl)benzoic acid]	26

same assay, conditions: acute model; oral 10 mg/kg/day for 10 days; p<0.05

Compound	decrease of percent of mice presenting with severe endoscopy scores, of vehicle control [%]
O=C(O)c1ccc(-c2ccc3cc(O)ccc3c2)c(F)c1 [Example 2, 3-fluoro-4-(6-hydroxynaphthalen-2-yl)benzoic acid]	58

biological target: T1, GSNOR (Homo sapiens, UniProt P11766); experiment: GSNOR assay (inhibition of GSNOR activity, change in 340 nm absorbance); type: biochemical; conditions: 100 mM NaPO4 pH 7.4, 0.240 mM GSNO, 0.300 mM NADH, 0.5 μg/mL GSNO Reductase, 1% DMSO, 25° C.
T1 construct: made in house; host or cells: E. coli
T1 sequence (P11766 whole entry): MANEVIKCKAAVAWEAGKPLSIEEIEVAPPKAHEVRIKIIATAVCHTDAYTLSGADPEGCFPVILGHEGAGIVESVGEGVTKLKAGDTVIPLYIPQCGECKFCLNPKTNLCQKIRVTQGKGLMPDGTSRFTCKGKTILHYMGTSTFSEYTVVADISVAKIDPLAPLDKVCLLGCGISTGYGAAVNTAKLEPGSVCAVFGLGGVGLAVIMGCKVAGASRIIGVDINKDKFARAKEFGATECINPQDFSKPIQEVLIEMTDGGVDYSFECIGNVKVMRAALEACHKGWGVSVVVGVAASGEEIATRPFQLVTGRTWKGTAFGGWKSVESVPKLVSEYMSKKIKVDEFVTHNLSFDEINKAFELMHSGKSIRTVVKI
Procedure: Various compounds were tested in vitro for their ability to inhibit GSNOR activity.
GSNOR expression and purification is described in Biochemistry 2000, 39, 10720-10729.
GSNOR Fermentation: Pre-cultures were grown from stabs of a GSNOR glycerol stock in 2XYT media containing 100 ug/ml ampicillin after an overnight incubation at 37° C. Cells were then added to fresh 2XYT (4 L) containing ampicillin and grown to an OD (A600) of 0.6-0.9 at 37° C. before induction. GSNOR expression was induced with 0.1% arabinose in an overnight incubation at 20° C.
GSNOR Purification: E. coli cell paste was lysed by nitrogen cavitation and the clarified lysate purified by Ni affinity chromatography on an AKTA FPLC (Amersham Pharmacia). The column was eluted in 20 mM Tris pH 8.0/250 mM NaCl with a 0-500 mM imidazole gradient. Eluted GSNOR fractions containing the Smt-GSNOR fusion were digested overnight with Ulp-1 at 4° C. to remove the affinity tag then re-run on the Ni column under the same conditions. GSNOR was recovered in the flowthrough fraction and for crystallography is further purified by Q-Sepharose and Heparin flowthrough chromatography in 20 mM Tris pH 8.0, 1 mM DTT, 10 uM ZnSO4.
GSNOR Assay: GSNO and enzyme/NADH Solutions are made up fresh each day. The solutions are filtered and allowed to warm to room temperature. GSNO solution: 100 mM NaPO4 (pH 7.4), 0.480 mM GSNO. 396 μL of GSNO Solution is added to a cuvette followed by 8 μL of test compound in DMSO (or DMSO only for full reaction control) and mixed with the pipette tip. Compounds to be tested are made up at a stock concentration of 10 mM in 100% DMSO. 2 fold serial dilutions are done in 100% DMSO. 8 μL of each dilution are added to an assay so that the final concentration of DMSO in the assay is 1%. The concentrations of compounds tested range from 100 to 0.003 μM. Enzyme/NADH solution: 100 mM NaPO4 (pH 7.4), 0.600 mM NADH, 1.0 μg/mL GSNO Reductase. 396 μL of the Enzyme/NADH solution is added to the cuvette to start the reaction. The cuvette is placed in the Cary 3E UV/Visible Spectrophotometer and the change in 340 nm absorbance/min at 25° C. is recorded for 3 minutes. The assays are done in triplicate for each compound concentration. IC50's for each compound are calculated using the standard curve analysis in the Enzyme Kinetics Module of SigmaPlot.
Final assay conditions: 100 mM NaPO4, pH 7.4, 0.240 mM GSNO, 0.300 mM NADH, 0.5 μg/mL GSNO Reductase, and 1% DMSO. Final volume: 800 μL/cuvette.

Compound	pIC50
O=C(O)c1ccc(-c2ccc3cc(O)ccc3c2)c(F)c1 [Example 2, 3-fluoro-4-(6-hydroxynaphthalen-2-yl)benzoic acid]	> 7.30
COc1cc(C(=O)O)ccc1-c1ccc2cc(O)ccc2c1 [Example 3, 4-(6-hydroxynaphthalen-2-yl)-3-methoxybenzoic acid]	> 7.00
CN(C)c1cc(C(=O)O)ccc1-c1ccc2cc(O)ccc2c1 [Example 5, 3-(dimethylamino)-4-(6-hydroxynaphthalen-2-yl)benzoic acid]	> 7.00
N#Cc1cc(C(=O)O)ccc1-c1ccc2cc(O)ccc2c1 [Example 6, 3-cyano-4-(6-hydroxynaphthalen-2-yl)benzoic acid]	> 7.30
O=C(O)c1ccc(-c2ccc3cc(O)ccc3c2Br)cc1 [Example 12, 4-(1-bromo-6-hydroxynaphthalen-2-yl)benzoic acid]	> 7.30
N#Cc1c(-c2ccc(C(=O)O)cc2)ccc2cc(O)ccc12 [Example 15, 4-(1-cyano-6-hydroxynaphthalen-2-yl)benzoic acid]	> 7.30
O=C(O)c1ccc(-c2ccc3cc(O)ccc3c2Cl)cc1 [Example 17, 4-(1-chloro-6-hydroxynaphthalen-2-yl)benzoic acid]	> 7.30
Oc1ccc2cc(-c3ccc(-c4nnn[nH]4)cc3)ccc2c1 [Example 18, 6-(4-(1H-tetrazol-5-yl)phenyl)naphthalen-2-ol]	> 7.00
O=C(O)c1ccc(-c2ccc3cc(O)ccc3c2)c(C(F)(F)F)c1 [Example 20, 4-(6-hydroxynaphthalen-2-yl)-3-(trifluoromethyl)benzoic acid]	> 7.00
O=C(O)c1ccc(-c2cc3ccc(O)cc3cc2F)c(Cl)c1 [Example 21, 3-chloro-4-(3-fluoro-6-hydroxynaphthalen-2-yl)benzoic acid]	> 7.30
O=C(O)c1ccc(-c2cc3ccc(O)cc3cc2Cl)cc1 [Example 22, 4-(3-chloro-6-hydroxynaphthalen-2-yl)benzoic acid]	> 7.30
O=C(O)c1ccc(-c2cc3ccc(O)cc3cc2F)cc1 [Example 23, 4-(3-fluoro-6-hydroxynaphthalen-2-yl)benzoic acid]	> 7.30
COc1c(-c2ccc(C(=O)O)cc2)ccc2cc(O)ccc12 [Example 24, 4-(6-hydroxy-1-methoxynaphthalen-2-yl)benzoic acid]	> 7.00

Second part, the molecule after the results:

pIC50	Compound
> 7.30	O=C(O)c1ccc(-c2ccc3cc(O)ccc3c2F)cc1 [Example 25, 4-(1-fluoro-6-hydroxynaphthalen-2-yl)benzoic acid]
> 7.00	Cc1cc2cc(O)ccc2cc1-c1ccc(C(=O)O)cc1 [Example 26, 4-(6-hydroxy-3-methylnaphthalen-2-yl)benzoic acid]
> 7.30	N#Cc1c(-c2ccc(C(=O)O)cc2)ccc2c(F)c(O)ccc12 [Example 27, 4-(1-cyano-5-fluoro-6-hydroxynaphthalen-2-yl)benzoic acid]
> 7.30	N#Cc1c(-c2ccc(C(=O)O)cc2F)ccc2cc(O)ccc12 [Example 28, 4-(1-cyano-6-hydroxynaphthalen-2-yl)-3-fluorobenzoic acid]
> 7.30	O=C(O)c1ccc(-c2ccc3c(F)c(O)ccc3c2)c(Cl)c1 [Example 29, 3-chloro-4-(5-fluoro-6-hydroxynaphthalen-2-yl)benzoic acid]
> 7.30	O=C(O)c1ccc(-c2ccc3c(F)c(O)ccc3c2)cc1 [Example 30, 4-(5-fluoro-6-hydroxynaphthalen-2-yl)benzoic acid]
> 7.30	O=C(O)c1ccc(-c2ccc3c(F)c(O)ccc3c2)c(F)c1 [Example 31, 3-fluoro-4-(5-fluoro-6-hydroxynaphthalen-2-yl)benzoic acid]
> 7.30	Cc1cc(C(=O)O)ccc1-c1ccc2c(F)c(O)ccc2c1 [Example 32, 4-(5-fluoro-6-hydroxynaphthalen-2-yl)-3-methylbenzoic acid]
> 7.00	O=C(O)c1ccc(-c2ccc3cc(O)ccc3c2)cc1 [Example 33, 4-(6-hydroxynaphthalen-2-yl)benzoic acid]
